Values quoted from earlier work in patent US20260284233A1, “IMAGING METHODS AND AGENTS FOR GRADING AND STAGING AND SUBSEQUENT TREATMENT OF PROSTATE CANCER IN A PATIENT” (Progenics Pharmaceuticals, Inc., priority 2023, published 2026).

Legend:
[1] = system: extracellular domain of PSMA
[2] = 333 MBq (9 mCi) dose; data from clinical trials; compared with commonly used tracers for oncologic imaging

- binding affinity to the extracellular domain of PSMA [1]: high affinity
SMILES: O=C(O)CC[C@H](NC(=O)N[C@@H](CCCCNC(=O)c1ccc([18F])nc1)C(=O)O)C(=O)O [piflufolastat F18]
- mean effective radiation dose to the whole body [2]: lower than commonly used tracers for oncologic imaging
